Assay results: patent US20130245064A1, “NOVEL NEUROTRYPSIN INHIBITORS” (priority 2010, published 2013)
Read-outs that look alike come from different tables or passages of the source.

Key:
Kallikrein = target: T1, Kallikrein (Homo sapiens, UniProt P03952); test: Determination of IC50 for various proteases: kallikrein; type: biochemical; settings: kallikrein 2 nM, substrate S-2288 0.5 mM; Mean ± SD
T1 construct: purchased American diagnostic
Description: A 6 mM solution of the test compound in DMSO was prepared. In a V-bottom micro plate the 6 mM compound solution was diluted 6 times in DMSO to obtain a concentration row with the following concentrations: 6 mM, 1.8 mM, 540 μM, 162 μM, 48.8 μM, 14.4 μM, and 4 μM. From this DMSO master plate 1:20 dilutions in 10 mM MOPS pH 8.3 were prepared to obtain solutions of 300, 90, 27, 8.1, 2.44, 0.72 and 0.22 μM in MOPS buffer and 5% DMSO.
100 μl of this solution were pipetted into a flat bottom 96 well microplate and placed into a Tecan infinite 200 plate reader. Before measurement, 50 μl of protease solution and, subsequently 50 μl substrate solution were added by the machine. The liberation of free para nitroanilide was detected at 405 nm. The protease solution was freshly prepared by diluting to the desired concentration from a stock solution in 60 mM MOPS; 600 mM NaCl; 20 mM CaCl2; 10% DMSO; 0.4% PEG 6000 pH 8.3. The substrate solution was prepared by dissolving the solid substrate in an adequate amount of water to get the desired concentrations. The used protease and substrate solutions are given below:
All enzymes except trypsin were from human origin (American diagnostic). Trypsin was hog trypsin (Sigma Aldrich). Substrates were purchased from Chromogenix. […]

human neurotrypsin = target: T2, human neurotrypsin (Homo sapiens, UniProt P56730); test: Determination of IC50 for human neurotrypsin; type: biochemical
T2 sequence (P56730 21-875): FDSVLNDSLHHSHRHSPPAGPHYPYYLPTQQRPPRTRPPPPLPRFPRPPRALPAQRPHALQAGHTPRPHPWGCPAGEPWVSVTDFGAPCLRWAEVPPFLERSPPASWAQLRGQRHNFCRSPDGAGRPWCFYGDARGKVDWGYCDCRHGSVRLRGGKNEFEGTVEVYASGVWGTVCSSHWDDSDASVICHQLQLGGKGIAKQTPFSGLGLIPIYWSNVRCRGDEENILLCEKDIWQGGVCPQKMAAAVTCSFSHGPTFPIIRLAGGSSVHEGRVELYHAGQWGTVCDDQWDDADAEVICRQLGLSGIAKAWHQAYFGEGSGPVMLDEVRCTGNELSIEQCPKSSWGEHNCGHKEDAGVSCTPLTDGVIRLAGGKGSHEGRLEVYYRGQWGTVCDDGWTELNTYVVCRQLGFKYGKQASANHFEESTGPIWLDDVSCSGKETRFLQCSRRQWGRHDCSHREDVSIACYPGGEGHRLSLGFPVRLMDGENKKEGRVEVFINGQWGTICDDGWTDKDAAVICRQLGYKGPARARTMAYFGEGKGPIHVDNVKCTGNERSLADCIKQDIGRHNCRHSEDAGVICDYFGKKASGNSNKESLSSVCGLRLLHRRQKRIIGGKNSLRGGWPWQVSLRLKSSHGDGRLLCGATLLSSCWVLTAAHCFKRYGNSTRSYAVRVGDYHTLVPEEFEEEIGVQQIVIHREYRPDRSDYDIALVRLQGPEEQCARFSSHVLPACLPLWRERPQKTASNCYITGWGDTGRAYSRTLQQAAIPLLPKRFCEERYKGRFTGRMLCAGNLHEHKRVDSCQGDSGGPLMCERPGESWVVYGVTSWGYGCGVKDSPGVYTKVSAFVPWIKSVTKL
Description: Determination of IC50 for Human Neurotrypsin
Assessment of the potency of compounds of examples 1-14 in inhibiting the enzymatic activity of human neurotrypsin was performed according to the method described in patent application […]

T1 sequence (P03952 391-638 limits assumed): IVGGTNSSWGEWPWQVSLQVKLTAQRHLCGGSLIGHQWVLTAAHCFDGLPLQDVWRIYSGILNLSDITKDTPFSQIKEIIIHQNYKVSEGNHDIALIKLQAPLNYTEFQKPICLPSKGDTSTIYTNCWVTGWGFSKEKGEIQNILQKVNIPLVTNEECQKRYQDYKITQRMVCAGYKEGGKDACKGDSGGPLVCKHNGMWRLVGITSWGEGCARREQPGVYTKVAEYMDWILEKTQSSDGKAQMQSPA
T1 sequence (P03952 20-390 limits assumed): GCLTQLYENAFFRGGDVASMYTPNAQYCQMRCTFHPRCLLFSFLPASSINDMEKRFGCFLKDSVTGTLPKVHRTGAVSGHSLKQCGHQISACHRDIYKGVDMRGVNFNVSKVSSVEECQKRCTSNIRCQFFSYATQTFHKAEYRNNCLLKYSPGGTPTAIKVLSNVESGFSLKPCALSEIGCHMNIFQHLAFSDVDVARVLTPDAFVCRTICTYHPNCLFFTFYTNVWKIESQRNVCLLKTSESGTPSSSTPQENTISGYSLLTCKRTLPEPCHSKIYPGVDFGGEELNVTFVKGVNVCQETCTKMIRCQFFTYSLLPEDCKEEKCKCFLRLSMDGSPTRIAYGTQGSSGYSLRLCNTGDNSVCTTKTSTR

For `O=C(Nc1ccc(C(=O)Nc2ccc(Cl)cc2)c(O)c1)c1ccc(-c2nc3cc(Cl)c(Cl)cc3[nH]2)cc1` [Example 1, N-(4-Chlorophenyl)-4-(4-(5,6-dichloro-1H-benzo[d]imidazol-2-yl)benzamido)-2-hydroxybenzamide], which IC50 (Kallikrein) is on record?
The IC50 was greater than 150000 nM.

And the IC50 (human neurotrypsin; Mean ± SD, read-out: IC50 Neurotrypsin)?
The IC50 was 470 ± 150 nM.

And the IC50 (human neurotrypsin; table of all 14 examples, read-out: Neurotrypsin IC50)?
The IC50 was 400 nM.

What about the melting point of the same molecule?
The melting point was greater than 220 °C.
